Reference: patent US6303612A, “Derivatives of hydroxyphenylsulfanylbenzoic and hydroxphenylsulfanylarylacetic acids” (Leciva, A.S., priority 1998, dated 2001)
≈ marks a conversion by molar mass, not a printed value. Like-named read-outs stand apart in the source and are kept apart here.

What was measured:
Wistar-Han rats = test: Inhibition of carrageenan edema; type: in vivo; settings: dose 100 mg/kg; for inhibition in vivo at 100 mg/kg: Rattus norvegicus, read-out: CE: inhibition of carrageenan-induced edema, % of inh.
rats = test: Inhibition of carrageenan-induced pleuritis in rats; type: in vivo; settings: dose 100 mg/kg, oral, values with mark n: p > 0.05; for inhibition in vivo at 100 mg/kg: Rattus norvegicus, po, 4 h
Procedure, shortened: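 Rats given test drug as single oral dose 1 h before intrapleural 0.5% carrageenan (1 ml) under light ether anaesthesia. Pleural exudate collected 4 h later; volume, cellularity and total cell count measured.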

[1] = system: bronchospasm induced by LTD4; test: Inhibition of bronchospasm induced by LTD4; type: in vivo
Description: (§1) Inhibition of Allergic Bronchospasm Induced by […] (Compound 48/80 or Ovalbumin, Respectively)
(§2) The modified method of Kreutner W. et al (Krelutner W. et al.: Agents Actions 28, 253 (1989)) was used. Bronchoconstrictioin was induced by intravenous injection of 1 μg/kg LTD4 (3 mg/kg of compound […] or 0.35 mg/kg of ovalbumin, respectively). In the case of oval-bumin, the animals were senzitized by intraperitoneal injection of ovalbumin (100 mg/kg) 14 days before induction. The compounds tested were applied 5 min before the administration of the inductor; the vehiculum used for the application of compound tested was administered to the control group of animals. The tracheal pressure was determined in the intervals of 2, 4 and 10 minutes after induction. The effect was expressed in percentage inhibition of bronchospasm relative to the untreated control.

LTD4 receptor = target: T1, LTD4 receptor (Cavia porcellus, UniProt Q2NNR5); test: LTD4 receptor binding study; settings: 3H-LTD4, guinea-pig lung membranes; for IC50: read-out: Inh. of LTD4 rec. binding, IC50; for inhibition at 100 µM: read-out: Inh. of LTD4 rec. binding, %
T1 construct: The membrane fraction was prepared from male guinea-pig lungs; from tissue; host or cells: male guinea-pig lung membranes
T1 sequence (Q2NNR5 1-340): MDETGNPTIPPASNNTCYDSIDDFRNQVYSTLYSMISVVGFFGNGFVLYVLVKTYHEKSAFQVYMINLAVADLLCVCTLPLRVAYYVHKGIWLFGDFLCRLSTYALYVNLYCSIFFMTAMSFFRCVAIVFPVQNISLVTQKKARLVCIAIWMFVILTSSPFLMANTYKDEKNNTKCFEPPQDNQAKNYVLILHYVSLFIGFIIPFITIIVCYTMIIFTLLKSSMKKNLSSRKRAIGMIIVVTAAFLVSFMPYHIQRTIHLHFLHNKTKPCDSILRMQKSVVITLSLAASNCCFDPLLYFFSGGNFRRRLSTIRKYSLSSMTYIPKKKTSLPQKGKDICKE
Procedure, shortened: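 Guinea-pig lung membranes (male animals) were incubated with 0.4 nM ³H-LTD4 for 60 min at 25 °C. Nonspecific binding was defined with 0.1 μM LTD4. Bound radioactivity was measured after filtration and washing.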

LTB4 receptor = LTB4 receptor (Cavia porcellus, UniProt H0VYV8); test: LTB4 receptor binding study; settings: 3H-LTB4, guinea-pig spleen membranes; for IC50: read-out: Inh. of LTB4 rec. binding, IC50; for inhibition at 20 µM: read-out: Inh. of LTB4 rec. binding, %
Procedure, shortened: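 Male guinea-pig spleen membranes (2 mg) incubated with 0.3 nM ^3H-LTB4 for 30 min at 25 °C; nonspecific binding defined with 0.1 μM LTB4. Bound ligand collected by GF/C filtration, counted by liquid scintillation to give specific binding.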

[2] = system: bronchospasm induced by ovalbumin; test: Inhibition of bronchospasm induced by ovalbumin; type: in vivo
Description: as §1, §2

[3] = system: LTB4 production in rat polymorphonuclear cells; test: Ex vivo inhibition of LTB4 production (LTB4 biosynthesis); type: cell-based; settings: for Inh. of LTB4 biosynth., %: at 30 μg (%/μg); for IC50: Rattus norvegicus, read-out: Inh. of LTB4 biosynth., IC50
[4] = system: peroxidation of lipids from the hepatic cells membranes; test: Antioxidant effect in vitro; type: biochemical; settings: at 100 μg
Excerpt: Antioxidant Effect in vitro
The end-product, malonic dialdehyde, was transformed to coloured complex with thiobarbituric acid and determined spectrophotometrically. The antioxidant effect was expressed in % of peroxidation inhibition in the presence of the compound tested in comparison to a control sample.

male mice = test: Inhibition of arachidonic acid-induced ear inflammation in mice; type: in vivo; settings: for inhibition in vivo at 200 mg/kg: Mus musculus, po, 1 h
Procedure, shortened: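 Compounds given orally 1 h before ear inflammation was induced in male mice with 20 µl arachidonic acid in acetone (100 mg/ml). Animals killed 1 h after induction. Ear hyperemia and ear-lobe weight assessed against the vehicle-treated contralateral ear.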

[5] = system: bronchospasm induced by histamine liberator 48/80; test: Inhibition of bronchospasm induced by histamine liberator 48/80; type: in vivo; settings: dose 100 mg/kg
Description: as §1, §2

[6] = read-out: Experimental pleuritis, A: volume of exudate in pleural cavity, % of inh.
[7] = read-out: Experimental pleuritis, B: number of cells, % of inh.
[8] = read-out: Experimental pleuritis, C: cellularity in a volume unit, % of inh.
[9] = values with mark n: p > 0.05, read-out: Ear edema, D: edema of ear lobe, % of inh.
[10] = values with mark n: p > 0.05, read-out: Ear edema, E: hyperemia of ear lobe, % of inh.
[11] = dose 200 mg/kg, oral, values with mark n: p > 0.05, 200 mg/kg

LTB4 receptor, sequence (H0VYV8 1-348): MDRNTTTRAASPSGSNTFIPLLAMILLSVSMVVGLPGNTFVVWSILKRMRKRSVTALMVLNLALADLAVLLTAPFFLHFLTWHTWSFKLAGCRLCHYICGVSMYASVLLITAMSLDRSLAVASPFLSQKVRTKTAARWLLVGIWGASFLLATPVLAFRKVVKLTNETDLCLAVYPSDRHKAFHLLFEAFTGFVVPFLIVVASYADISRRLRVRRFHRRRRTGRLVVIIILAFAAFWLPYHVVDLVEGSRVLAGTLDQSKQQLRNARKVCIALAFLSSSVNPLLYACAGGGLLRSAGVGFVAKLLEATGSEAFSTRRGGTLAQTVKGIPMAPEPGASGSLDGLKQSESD

IC50 (LTD4 receptor) [µM]	inhibition at 100 µM (LTD4 receptor) [%]	IC50 (LTB4 receptor) [µM]	inhibition at 20 µM (LTB4 receptor; at 20 μM) [%]	IC50 [3] [µg/mL]	Compound	inhibition in vivo at 100 mg/kg (Wistar-Han rats) [%]	inhibition in vivo at 100 mg/kg (rats; [6]) [%]	inhibition in vivo at 100 mg/kg (rats; [7]) [%]	inhibition in vivo at 100 mg/kg (rats; [8]) [%]	inhibition in vivo at 100 mg/kg ([1]; 2 min) [%]	inhibition in vivo at 100 mg/kg ([1]; 4 min) [%]	inhibition in vivo at 100 mg/kg ([2]; 2 min) [%]	inhibition in vivo at 100 mg/kg ([2]; 4 min) [%]	inhibition in vivo at 100 mg/kg ([2]; 10 min) [%]	Inh. of LTB4 biosynth., % [3] [%]	Antiox. effect, % of peroxidation inhibition [4] [%]	inhibition in vivo at 200 mg/kg (male mice; [9]) [%]	inhibition in vivo at 200 mg/kg (male mice; [10]) [%]	inhibition in vivo at 100 mg/kg ([1]; 10 min) [%]	also measured
0.024	100	91.6	–	–	O=C(O)c1ccc(Sc2ccc(OCc3ccc4ccccc4n3)cc2)cc1 [Compound 16]	25	26	33	11	69	70.8	41	45	63	98	13	27	3	–	Inh. of LTB4 rec. binding, % (LTB4 receptor; at 20 μM): 19%; Inh. of LTB4 biosynth., IC50 [3]: 0.004 µg/mL
1.7	100	70.3	34	0.13 (≈ 0.336 µM)	O=C(O)c1ccccc1Sc1ccc(OCc2ccc3ccccc3n2)cc1 [Compound 19, 2-(4-(Quinoline-2-ylmethoxy)phenylsulfanyl)benzoic Acid]	13	17	23	6	14	33	21	27.3	–	100	10	20	5	43	–
3.8	84	50	22	0.07 (≈ 0.166 µM)	O=C(O)c1ccc(Sc2ccc(OCc3ccc4cc(Cl)ccc4n3)cc2)cc1 [Compound 22, 4-(4-(6-Chloroquinoline-2-ylmethoxy)phenylsulfanyl)benzoic Acid]	14	10	25	15	14	33	3	15	30	97	13	1	9	43	–
41	79	–	28	7.6	O=C(O)c1ccccc1Sc1ccc(OCCCN2CCN(Cc3ccc(Cl)cc3)CC2)cc1 [Compound 13, Dimethanesulfonate of 2-(4-(3-(1-(4-Chlorobenzyl)piperazin-4-yl)-propoxy)phenylsulfanyl)benzoic Acid]	–	–	–	–	6	38	46	35	51	100	–	–	–	54	Inhibition of bronchospasm induced by histamine liberator 48/80 ([5]; 2 min): 84%; Inhibition of bronchospasm induced by histamine liberator 48/80 ([5]; 4 min): 82%; Inhibition of bronchospasm induced by histamine liberator 48/80 ([5]; 10 min): 69%
0.63	100	44.2	38	0.08 (≈ 0.206 µM)	O=C(O)c1ccccc1Sc1cccc(OCc2ccc3ccccc3n2)c1 [Compound 17, 2-(3-(Quinoline-2-ylmethoxy)phenylsulfanyl)benzoic Acid]	19	5	20	15	11	28	23	36	50	100	4	16	3	23	–
16	69	7.1	85	< 0.01	O=C(O)c1ccccc1Sc1cccc(OCCCN2CCN(Cc3ccc(Cl)cc3)CC2)c1 [Compound 12, Bis-hydrogenmaleate of 2-(3-(3-(1-(4-Chlorobenzyl)piperazin-4-yl)propoxy)-phenylsulfanyl)benzoic Acid]	27	–	–	–	9	41	71	73	90	100	17	18	7	60	Inhibition of bronchospasm induced by histamine liberator 48/80 ([5]; 2 min): 77%; Inhibition of bronchospasm induced by histamine liberator 48/80 ([5]; 4 min): 78%; Inhibition of bronchospasm induced by histamine liberator 48/80 ([5]; 10 min): 85%
0.27	100	31.3	31	–	O=C(O)c1ccccc1Sc1cccc(OCc2ccc3cc(Cl)ccc3n2)c1 [Compound 20, 2-(3-(6-Chloroquinoline-2-ylmethoxy)phenylsulfanyl)benzoic Acid]	–	15	19	–	6	38	66	72	85	99	1	–	–	54	CE: inhibition of carrageenan-induced edema, % of inh. (Wistar-Han rats): 25%; Experimental pleuritis, C: cellularity in a volume unit, % of inh. (rats; 100 mg/kg): 4%; Inh. of LTB4 biosynth., IC50 [3]: 0.035 µg/mL; Ear edema, D: edema of ear lobe, % of inh. (male mice; [11]): 12%; Ear edema, E: hyperemia of ear lobe, % of inh. (male mice; [11]): 0%
